In patent US11116760B2 (Gilead Sciences, Inc., priority 2018, dated 2021):

Molecular target: α4β7 integrin (Homo sapiens (Human), UniProt P13612+P26010)
Assay: α4β7 Integrin Cell Capture Assay
Format: cell-based
[1] = Table 2, capture of α4β7 expressing RPM18866 cells on MadCAM-1 extracellular domain-coated plate
[2] = Table 1, capture of α4β7 expressing RPM18866 cells on MadCAM-1 extracellular domain-coated plate
[3] = RPMI8866 cells captured on MadCAM-1 extracellular domain-coated plate

α4β7 integrin, sequence (P13612 34-1032): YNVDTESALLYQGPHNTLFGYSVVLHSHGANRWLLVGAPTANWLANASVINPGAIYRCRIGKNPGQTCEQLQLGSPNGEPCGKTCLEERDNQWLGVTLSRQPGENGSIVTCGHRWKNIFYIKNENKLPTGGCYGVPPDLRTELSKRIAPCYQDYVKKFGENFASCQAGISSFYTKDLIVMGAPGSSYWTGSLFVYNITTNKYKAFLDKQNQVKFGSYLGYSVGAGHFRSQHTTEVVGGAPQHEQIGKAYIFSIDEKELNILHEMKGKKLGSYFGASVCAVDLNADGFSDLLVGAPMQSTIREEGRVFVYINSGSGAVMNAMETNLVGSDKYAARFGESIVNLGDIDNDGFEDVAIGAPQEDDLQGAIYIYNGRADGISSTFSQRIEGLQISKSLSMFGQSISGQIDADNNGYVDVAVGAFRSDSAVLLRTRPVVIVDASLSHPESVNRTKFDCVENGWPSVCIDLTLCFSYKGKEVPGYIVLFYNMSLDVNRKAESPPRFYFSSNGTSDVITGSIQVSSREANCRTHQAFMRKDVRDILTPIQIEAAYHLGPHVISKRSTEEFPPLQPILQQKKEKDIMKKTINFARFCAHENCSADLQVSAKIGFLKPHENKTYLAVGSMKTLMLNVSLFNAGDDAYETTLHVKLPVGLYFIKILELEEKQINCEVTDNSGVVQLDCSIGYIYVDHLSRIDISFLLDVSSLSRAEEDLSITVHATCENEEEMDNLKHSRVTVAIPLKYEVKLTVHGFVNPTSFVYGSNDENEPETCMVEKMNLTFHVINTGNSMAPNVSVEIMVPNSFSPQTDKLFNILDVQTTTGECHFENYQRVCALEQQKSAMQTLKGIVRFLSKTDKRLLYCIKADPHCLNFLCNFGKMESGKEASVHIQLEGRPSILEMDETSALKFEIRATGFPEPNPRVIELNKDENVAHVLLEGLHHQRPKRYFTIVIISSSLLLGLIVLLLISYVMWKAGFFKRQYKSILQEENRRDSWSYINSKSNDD
α4β7 integrin, sequence (P26010 20-798): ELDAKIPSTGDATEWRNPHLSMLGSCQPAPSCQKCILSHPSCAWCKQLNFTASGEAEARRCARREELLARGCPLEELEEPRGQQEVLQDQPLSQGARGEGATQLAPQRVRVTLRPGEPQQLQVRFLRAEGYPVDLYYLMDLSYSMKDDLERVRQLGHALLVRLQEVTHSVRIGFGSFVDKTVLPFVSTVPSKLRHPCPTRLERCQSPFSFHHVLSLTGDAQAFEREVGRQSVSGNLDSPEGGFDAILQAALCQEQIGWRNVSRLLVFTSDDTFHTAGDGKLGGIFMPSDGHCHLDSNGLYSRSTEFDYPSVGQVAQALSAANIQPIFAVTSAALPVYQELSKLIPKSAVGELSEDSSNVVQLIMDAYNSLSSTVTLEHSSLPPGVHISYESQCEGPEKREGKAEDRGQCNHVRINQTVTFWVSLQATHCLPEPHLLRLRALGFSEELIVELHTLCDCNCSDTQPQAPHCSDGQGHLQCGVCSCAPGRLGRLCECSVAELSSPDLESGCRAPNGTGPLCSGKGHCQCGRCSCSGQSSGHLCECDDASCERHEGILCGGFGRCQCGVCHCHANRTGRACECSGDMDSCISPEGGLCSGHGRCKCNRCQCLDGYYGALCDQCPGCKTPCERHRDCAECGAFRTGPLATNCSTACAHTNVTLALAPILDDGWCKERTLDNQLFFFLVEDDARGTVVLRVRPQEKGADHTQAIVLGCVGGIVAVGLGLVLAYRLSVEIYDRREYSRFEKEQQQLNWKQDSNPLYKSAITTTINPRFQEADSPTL

| EC50 [1] [nM] | EC50 [2] [nM] | Molecule | other results |
| --- | --- | --- | --- |
| 0.7 |  | Cc1cc(C(F)(F)F)c(-c2ccc(C[C@H](NC(=O)c3c(F)cc(N4CCO[C@@H](C)C4)cc3F)C(=O)O)c3cccnc23)c(=O)n1C [Example 181] |  |
| 3.5 |  | CC[C@@H](Nc1cc(F)c(C(=O)N[C@@H](Cc2ccc(-c3c(C(F)(F)F)cc(F)c4cccnc34)c3ncccc23)C(=O)O)c(F)c1)C(F)(F)F [Example 256] |  |
|  | 1.8 | O=C(N[C@@H](Cc1ccc(-c2cccc3c2OCCC3)c2ncccc12)C(=O)O)c1c(F)cc(NS(=O)(=O)c2ccc(-c3ccnc(F)c3)cc2)cc1F [Example 62, (S)-3-(8-(chroman-8-yl)quinolin-5-yl)-2-(2,6-difluoro-4-((4-(2-fluoropyridin-4-yl)phenyl)sulfonamido)benzamido)propanoic acid] |  |
|  | 46.7 | COc1cccc(F)c1C(=O)N[C@@H](Cc1ccc(-c2ccc(C#N)cc2Cl)c2ncccc12)C(=O)O [Example 23, (S)-3-(8-(2-chloro-4-cyanophenyl)quinolin-5-yl)-2-(2-fluoro-6-methoxybenzamido)propanoic acid] |  |
| 5.8 |  | C[C@@H](Nc1cc(F)c(C(=O)N[C@@H](Cc2ccc(-c3c(Cl)cc(C#N)cc3Cl)c3ncccc23)C(=O)O)c(F)c1)C(F)(F)F [Example 288] |  |
| 0.7 |  | CC[C@@H](Nc1cc(F)c(C(=O)N[C@@H](Cc2ccc(-c3c(Cl)cc(C)n(C)c3=O)c3ncccc23)C(=O)O)c(F)c1)C(F)(F)F [Example 343] |  |
|  |  | Cc1cc(-c2nccn2CC(F)(F)F)cc(F)c1C(=O)N[C@@H](Cc1ccc(-n2c(=O)c3ccncc3n(C)c2=O)c2ncccc12)C(=O)O [Example 419] | EC50 [3]: 0.369 nM |
| 6.9 |  | COc1ccc(C)nc1-c1ccc(C[C@H](NC(=O)c2c(F)cc(N3CCOC[C@H]3C(F)(F)F)cc2F)C(=O)O)c2cccnc12 [Example 291] |  |
| 24.2 |  | N#Cc1ccc(-c2ccc(C[C@H](NC(=O)c3c(F)cc(N[C@H](c4cccc(F)c4)C(F)(F)F)cc3F)C(=O)O)c3cccnc23)c(Cl)c1 [Example 334] |  |
| 11.9 |  | O=C(N[C@@H](Cc1ccc(-c2c(C(F)(F)F)cc3n(c2=O)CCC3)c2ncccc12)C(=O)O)c1c(Cl)cccc1Cl [Example 308] |  |
| 79.2 |  | N#Cc1ccc(-c2ccc(C[C@H](NC(=O)c3c(Cl)cc4[nH]c(Cc5ccccc5)cc4c3Cl)C(=O)O)c3cccnc23)c(Cl)c1 [Example 240] |  |
|  |  | Cc1cc(N2CCOC[C@@H]2C(F)(F)F)cc(F)c1C(=O)N[C@@H](Cc1ccc(-c2cc(C)c(C)n(C)c2=O)c2ncccc12)C(=O)O [Example 455] | EC50 [3]: 0.211 nM |
| 48.3 |  | N#Cc1ccc(-c2ccc(C[C@H](NC(=O)c3c(F)cccc3OC(F)F)C(=O)O)c3cccnc23)c(Cl)c1 [Example 222] |  |
| 0.9 |  | Cc1cc(C(F)(F)F)c(-c2ccc(C[C@H](NC(=O)c3c(F)cc(N4CCOC[C@@H]4C(F)(F)F)cc3F)C(=O)O)c3ccc(C(F)(F)F)nc23)c(=O)n1C [Example 231] |  |
|  |  | Cc1cc(N2CCOC[C@@H]2C(F)(F)F)cc(F)c1C(=O)N[C@@H](Cc1ccc(-n2c(=O)c3c(cnn3C)n(C)c2=O)c2ncccc12)C(=O)O [Example 413] | EC50 [3]: 0.529 nM |
|  | 26.1 | N#Cc1ccc(-c2ccc(C[C@H](NC(=O)c3c(F)cc(N4CCOCC4)cc3F)C(=O)O)c3cccnc23)c(Cl)c1 [Example 79, (S)-3-(8-(2-chloro-4-cyanophenyl)quinolin-5-yl)-2-(2,6-difluoro-4-morpholinobenzamido)propanoic acid] |  |
| 8.4 |  | CC[C@@H](Nc1cc(F)c(C(=O)N[C@@H](Cc2ccc(-c3nccc(C)c3N(C)C)c3ncccc23)C(=O)O)c(F)c1)C(F)(F)F [Example 300] |  |
| 44.6 |  | C[C@@H](NC(=O)c1cc(F)c(C(=O)N[C@@H](Cc2ccc(-c3ccc(C#N)cc3Cl)c3ncccc23)C(=O)O)c(F)c1)C(F)(F)F [Example 154] |  |
| 16.2 |  | CC(C)(O)[C@H](F)CNC(=O)c1cc(F)c(C(=O)N[C@@H](Cc2ccc(-c3ccc(C#N)cc3Cl)c3ncccc23)C(=O)O)c(F)c1 [Example 322] |  |
|  | 0.7 | CC[C@@H](Nc1cc(F)c(C(=O)N[C@@H](Cc2ccc(-c3nc(C)c(C)n(C)c3=O)c3ncccc23)C(=O)O)c(F)c1)C(F)(F)F [Example 117, (S)-2-(2,6-difluoro-4-(((R)-1,1,1-trifluorobutan-2-yl)amino)benzamido)-3-(8-(4,5,6-trimethyl-3-oxo-3,4-dihydropyrazin-2-yl)quinolin-5-yl)propanoic acid] |  |
|  |  | Cc1cc(N2CCOC[C@@H]2C(F)(F)F)cc(C)c1C(=O)N[C@@H](Cc1ccc(-c2c(C(F)(F)F)cc(C)n(C)c2=O)c2ncccc12)C(=O)O [Example 446] | EC50 [3]: 0.318 nM |
|  | 8.2 | N#Cc1ccc(-c2ccc(C[C@H](NC(=O)c3c(F)cc(NC(C(F)(F)F)C(F)(F)F)cc3F)C(=O)O)c3cccnc23)c(Cl)c1 [Example 88, (S)-3-(8-(2-chloro-4-cyanophenyl)quinolin-5-yl)-2-(2,6-difluoro-4-((1,1,1,3,3,3-hexafluoropropan-2-yl)amino)benzamido)propanoic acid] |  |
| 7.4 |  | CC[C@@H](Nc1cc(F)c(C(=O)N[C@@H](Cc2ccc(-c3nc(C)c(C)nc3C)c3ncccc23)C(=O)O)c(F)c1)C(F)(F)F [Example 295] |  |
|  | 0.3 | COc1cc(C)n(C)c(=O)c1-c1ccc(C[C@H](NC(=O)c2c(F)cc(N3CCOC[C@@H]3C(F)(F)F)cc2F)C(=O)O)c2cccnc12 [Example 102, (S)-2-(2,6-difluoro-4-((R)-3-(trifluoromethyl)morpholino)benzamido)-3-(8-(4-methoxy-1,6-dimethyl-2-oxo-1,2-dihydropyridin-3-yl)quinolin-5-yl)propanoic acid] |  |
|  |  | Cc1cc(N2CCOC[C@@H]2C(F)(F)F)cc(F)c1C(=O)N[C@@H](Cc1ccc(-c2nc(C)c(C)n(C)c2=O)c2ncc(F)cc12)C(=O)O [Example 452] | EC50 [3]: 0.232 nM |
|  | 0.3 | Cc1c(C(F)(F)F)cn(C)c(=O)c1-c1ccc(C[C@H](NC(=O)c2c(F)cc(N3CCOC[C@@H]3C(F)(F)F)cc2F)C(=O)O)c2cccnc12 [Example 106, (S)-2-(2,6-difluoro-4-((R)-3-(trifluoromethyl)morpholino)benzamido)-3-(8-(1,4-dimethyl-2-oxo-5-(trifluoromethyl)-1,2-dihydropyridin-3-yl)quinolin-5-yl)propanoic acid] |  |

| Molecule | EC50 [1] [nM] | EC50 [2] [nM] | other results |
| --- | --- | --- | --- |
| O=C(N[C@@H](Cc1ccc(-c2ncccn2)c2ncccc12)C(=O)O)c1c(F)cc(NS(=O)(=O)c2ccc(-c3ccnc(F)c3)cc2)cc1F [Example 58, (S)-2-(2,6-difluoro-4-((4-(2-fluoropyridin-4-yl)phenyl)sulfonamido)benzamido)-3-(8-(pyrimidin-2-yl)quinolin-5-yl)propanoic acid] |  | 2 |  |
| CC[C@@H](Nc1cc(F)c(C(=O)N[C@@H](Cc2ccc(-c3c(C(F)(F)F)c4cc(N(C)C)ccc4n(C)c3=O)c3ncccc23)C(=O)O)c(F)c1)C(F)(F)F (atropisomer, axis not shown) [Example 302] | 9.4 |  |  |
| CC[C@@H](Nc1cc(F)c(C(=O)N[C@@H](Cc2ccc(-c3c(C)c4cc(F)ccc4n(C)c3=O)c3ncccc23)C(=O)O)c(F)c1)C(F)(F)F (atropisomer, axis not shown) [Example 109, (S)-2-(2,6-difluoro-4-(((R)-1,1,1-trifluorobutan-2-yl)amino)benzamido)-3-(6-fluoro-1,4-dimethyl-2-oxo-1,2-dihydro-[3,8′-biquinolin]-5′-yl)propanoic acid] |  | 0.3 |  |
| (S)-3-(8-(2-chloro-4-cyanophenyl)quinolin-5-yl)-2-(2,6-difluoro-4-((phenoxycarbonyl)amino)benzamido)propanoic acid [Example 41] |  | 7.7 |  |
